{"source": "patent EP0114002B1", "about": "“Benzothiopyrano(4,3,2,-cd)indazoles, their pharmaceutical compositions and methods for their production” (WARNER-LAMBERT COMPANY, priority 1983, dated 1984)", "key": {"[1]": {"test_system": "lymphocytic leukemia P388", "experiment": "in vivo lymphocytic leukemia P388 test", "set-up": "species or system mice", "conditions": "Mus musculus, P388, ip, 120 h, read-out: P388 in vivo T/C × 100; for response vs control in vivo at 3.12 mg/kg: Dose 3.12 mg/kg intraperitoneally once daily for five days; for response vs control in vivo at 6.25 mg/kg: Dose 6.25 mg/kg intraperitoneally once daily for five days; for response vs control in vivo at 12.5 mg/kg: Dose 12.50 mg/kg intraperitoneally once daily for five days", "method_in_brief": "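CD2F mice, 6-7 per group, inoculated IP with P388 leukemia ascitic cells, then dosed IP once daily for five consecutive days at various doses. Survival and weights tracked for 30 days; activity expressed as treated/control survival time ×100, with ≥125 as efficacy criterion. Deaths of all animals within four days flagged as toxic.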"}, "HCT-8 cells": {"test_system": "HCT-8 cells", "experiment": "in vitro proliferating human colon adenocarcinoma (HCA) cell screen", "format": "cell-based", "conditions": "Table 1, 60 to 65 hours with compound, 50% inhibition of growth, read-out: HCA—3 in vitro ID50", "method_in_brief": "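HCT-8 cells grown 48 h at 37 °C in RPMI 1640/10% FCS, then exposed to compound for a further 60–65 h. Nuclei counted by Coulter counter after lysis; percent growth per concentration gives ID50 as molar concentration causing 50% growth inhibition.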"}, "L1210 cells": {"test_system": "L1210 cells", "experiment": "L1210 murine leukemia cell growth inhibition in vitro", "format": "cell-based", "conditions": "Mus musculus, 72 h, Table 1, three days incubation, 50% inhibition of growth, read-out: L1210 in vitro ID50", "method_in_brief": "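Murine L1210 leukemia cells (3 x 10^4 cells/ml) in RPMI 1640 with 5% FBS were exposed to drug dilutions for 3 days at 37 °C and 5% CO2. Cells were then Coulter-counted, growth was expressed relative to solvent and medium controls, and ID50 was given in mol/L.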"}, "[2]": {"test_system": "Streptococcus faecalis 05045", "experiment": "in vitro antibacterial/antifungal (ABF) agar-disk diffusion test", "format": "cell-based", "conditions": "Enterococcus faecalis, AM-09 medium, read-out: ABF Zone Diameter (cont. in mg/ml) S. Fae-calis"}, "[3]": {"test_system": "Penicillium avellaneum M2988", "experiment": "in vitro antibacterial/antifungal (ABF) agar-disk diffusion test", "format": "cell-based", "conditions": "Hamigera avellanea, 3 mg/ml, read-out: ABF Zone Diameter (cont. in mg/ml) P. Avell-aneum"}, "[4]": {"test_system": "Aerobacter aerogenes 0126", "experiment": "in vitro antibacterial/antifungal (ABF) agar-disk diffusion test", "format": "cell-based", "conditions": "Klebsiella aerogenes, read-out: ABF Zone Diameter (cont. in mg/ml) A. Aero-genes; for zone of inhibition at 100 µg/mL: 0.1 mg/ml"}, "Bacillus subtilis 04555": {"test_system": "Bacillus subtilis 04555", "experiment": "in vitro antibacterial/antifungal (ABF) agar-disk diffusion test", "format": "cell-based", "conditions": "read-out: ABF Zone Diameter (cont. in mg/ml) B. Sub-tilis; for zone of inhibition at 500 µg/mL: 0.5 mg/ml"}, "Escherichia coli 04863": {"test_system": "Escherichia coli 04863", "experiment": "in vitro antibacterial/antifungal (ABF) agar-disk diffusion test", "format": "cell-based", "conditions": "0.5 mg/ml, read-out: ABF Zone Diameter (cont. in mg/ml) E. Coli"}}}
{"smiles": "OCCNCCNc1ccc2c3c(nn2CCNCCO)-c2ccccc2Sc13", "note": "[CH2CH2NHCH2CH2OH / NHCH2CH2NHCH2CH2OH, 2-[[2-[5-[[2-[(2-Hydroxyethyl)amino]ethyl]amino]-2H[1]benzothiopyrano[4,3,2-cd]indazol-2-yl]ethyl]amino]ethanol]", "values": [{"measurement": "response vs control in vivo at 0.75 mg/kg", "setting": "[1]; Dose 0.75 mg/kg intraperitoneally once daily for five days", "result": 146, "unit": "%"}, {"measurement": "response vs control in vivo at 0.78 mg/kg", "setting": "[1]; Dose 0.78 mg/kg intraperitoneally once daily for five days", "result": 153, "unit": "%"}, {"measurement": "response vs control in vivo at 1.5 mg/kg", "setting": "[1]; Dose 1.50 mg/kg intraperitoneally once daily for five days", "result": 155, "unit": "%"}, {"measurement": "response vs control in vivo at 1.56 mg/kg", "setting": "[1]; Dose 1.56 mg/kg intraperitoneally once daily for five days", "result": 180, "unit": "%"}, {"measurement": "response vs control in vivo at 3 mg/kg", "setting": "[1]; Dose 3.00 mg/kg intraperitoneally once daily for five days", "result": 187, "unit": "%"}, {"measurement": "response vs control in vivo at 3.12 mg/kg", "setting": "[1]", "result": 176, "unit": "%"}, {"measurement": "response vs control in vivo at 6 mg/kg", "setting": "[1]; Dose 6.00 mg/kg intraperitoneally once daily for five days", "result": 218, "unit": "%"}, {"measurement": "response vs control in vivo at 6.25 mg/kg", "setting": "[1]", "result": 195, "unit": "%"}, {"measurement": "response vs control in vivo at 12 mg/kg", "setting": "[1]; Dose 12.00 mg/kg intraperitoneally once daily for five days", "result": 270, "unit": "%"}, {"measurement": "response vs control in vivo at 12.5 mg/kg", "setting": "[1]", "result": 271, "unit": "%"}, {"measurement": "IC50", "setting": "HCT-8 cells", "result": 0.48, "unit": "µM"}, {"measurement": "IC50", "setting": "L1210 cells", "result": 0.4, "unit": "µM"}, {"measurement": "zone of inhibition at 3000 µg/mL", "setting": "[2]; 3 mg/ml", "result": 0, "unit": "mm"}, {"measurement": "zone of inhibition at 3000 µg/mL", "setting": "[3]", "result": 0, "unit": "mm"}, {"measurement": "zone of inhibition at 500 µg/mL", "setting": "[4]; 0.5 mg/ml", "result": 14, "unit": "mm"}, {"measurement": "zone of inhibition at 500 µg/mL", "setting": "Bacillus subtilis 04555", "result": 15, "unit": "mm"}, {"measurement": "zone of inhibition at 500 µg/mL", "setting": "Escherichia coli 04863", "result": 14, "unit": "mm"}]}
{"smiles": "CCN(CC)CCn1nc2c3c(c(NCCNCCO)ccc31)Sc1ccccc1-2", "note": "[CH2CH2N(C2H5)2 / NHCH2CH2NHCH2CH2OH, 2-[[2-[[2-[2-(Diethylamino)ethyl]-2H[1]benzothiopyrano[4,3,2-cd]indazol-5-yl]amino]ethyl]amino]ethanol]", "values": [{"measurement": "response vs control in vivo at 3.12 mg/kg", "setting": "[1]", "result": 209, "unit": "%"}, {"measurement": "response vs control in vivo at 6.25 mg/kg", "setting": "[1]", "result": 219, "unit": "%"}, {"measurement": "response vs control in vivo at 12.5 mg/kg", "setting": "[1]", "result": 280, "unit": "%"}, {"measurement": "IC50", "setting": "HCT-8 cells", "result": 0.2, "unit": "µM"}, {"measurement": "IC50", "setting": "L1210 cells", "result": 0.082, "unit": "µM"}, {"measurement": "zone of inhibition at 500 µg/mL", "setting": "[2]; 0.5 mg/ml", "result": 16, "unit": "mm"}, {"measurement": "zone of inhibition at 3000 µg/mL", "setting": "[3]", "result": 0, "unit": "mm"}, {"measurement": "zone of inhibition at 100 µg/mL", "setting": "[4]", "result": 15, "unit": "mm"}, {"measurement": "zone of inhibition at 500 µg/mL", "setting": "Bacillus subtilis 04555", "result": 18, "unit": "mm"}, {"measurement": "zone of inhibition at 500 µg/mL", "setting": "Escherichia coli 04863", "result": 26, "unit": "mm"}]}
{"smiles": "NCCn1nc2c3c(c(N)ccc31)Sc1ccccc1-2", "note": "[CH2CH2NH2 / NH2, 5-amino-2H[1]benzothiopyrano[4,3,2]-cd]indazole-2-ethanamine]", "values": [{"measurement": "response vs control in vivo at 3.12 mg/kg", "setting": "[1]", "result": 125, "unit": "%"}, {"measurement": "response vs control in vivo at 6.25 mg/kg", "setting": "[1]", "result": 131, "unit": "%"}, {"measurement": "response vs control in vivo at 12.5 mg/kg", "setting": "[1]", "result": 160, "unit": "%"}, {"measurement": "IC50", "setting": "HCT-8 cells", "result": 0.32, "unit": "µM"}, {"measurement": "IC50", "setting": "L1210 cells", "result": 0.11, "unit": "µM"}, {"measurement": "zone of inhibition at 1000 µg/mL", "setting": "[2]; 1 mg/ml", "result": 15, "unit": "mm"}, {"measurement": "zone of inhibition at 3000 µg/mL", "setting": "[3]", "result": 0, "unit": "mm"}, {"measurement": "zone of inhibition at 100 µg/mL", "setting": "[4]", "result": 17, "unit": "mm"}, {"measurement": "zone of inhibition at 1000 µg/mL", "setting": "Bacillus subtilis 04555; 1 mg/ml", "result": 18, "unit": "mm"}, {"measurement": "zone of inhibition at 500 µg/mL", "setting": "Escherichia coli 04863", "result": 19, "unit": "mm"}]}
